Several values for one entry are separate records, joined by “and”; a condition that tells them apart may be missing. Equal entries are not always repeated. Inconclusive results and toxic doses are left out.
System: L1210 leukemia ip in BDF1 mice, survival T/C
Test: NCI In Vivo Anticancer Drug Screen. Data for tumor model L1210 Leukemia (intraperitoneal) in B6D2F1 (BDF1) mice
Conditions: endpoint: mean survival time, higher = longer survival
How it was run: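 Antitumor effect is assessed in tumor-bearing animals. Survival in the compound arm is compared with a vehicle-dosed control arm and expressed as their quotient.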

[1] = dose: 25.0 mg/kg/injection, schedule: Q01DX009 (ip), vehicle: saline with Tween-80
[2] = dose: 50.0 mg/kg/injection, schedule: Q01DX009 (ip), vehicle: saline with Tween-80
[3] = dose: 100.0 mg/kg/injection, schedule: Q01DX009 (ip), vehicle: saline with Tween-80
[4] = dose: 100.0 mg/kg/injection, schedule: Q01DX009 (ip), vehicle: saline
[5] = dose: 100.0 mg/kg/injection, schedule: Q04DX003 (ip), vehicle: saline with Tween-80
[6] = dose: 200.0 mg/kg/injection, schedule: Q01DX009 (ip), vehicle: saline with Tween-80
[7] = dose: 200.0 mg/kg/injection, schedule: Q04DX003 (ip), vehicle: saline with Tween-80
[8] = dose: 100.0 mg/kg/injection, schedule: Q01DX001 (ip), vehicle: Klucel (hydroxypropylcellulose) (HPC)
[9] = dose: 400.0 mg/kg/injection, schedule: Q01DX001 (ip), vehicle: Klucel (hydroxypropylcellulose) (HPC)
[10] = dose: 100.0 mg/kg/injection, schedule: Q01DX001 (ip), vehicle: carboxymethylcellulose (CMC)
[11] = dose: 400.0 mg/kg/injection, schedule: Q01DX001 (ip), vehicle: carboxymethylcellulose (CMC)
[12] = dose: 100.0 mg/kg/injection, schedule: Q04DX003 (ip), vehicle: saline
[13] = dose: 200.0 mg/kg/injection, schedule: Q04DX003 (ip), vehicle: saline
[14] = dose: 200.0 mg/kg/injection, schedule: Q01DX001 (ip), vehicle: carboxymethylcellulose (CMC)
[15] = dose: 100.0 mg/kg/injection, schedule: Q04DX003 (ip), vehicle: Klucel (hydroxypropylcellulose) (HPC)
[16] = dose: 200.0 mg/kg/injection, schedule: Q04DX003 (ip), vehicle: Klucel (hydroxypropylcellulose) (HPC)
[17] = dose: 200.0 mg/kg/injection, schedule: Q01DX001 (ip), vehicle: Klucel (hydroxypropylcellulose) (HPC)

## N#[N+]c1c(C(=O)O)[nH]c(=O)[nH]c1=O
dose: 6.25 mg/kg/injection, schedule: Q01DX009 (ip), vehicle: saline
  T/C: 99 % of control
dose: 10.0 mg/kg/injection, schedule: Q01DX001 (ip), vehicle: carboxymethylcellulose (CMC)
  T/C: 92 % of control
dose: 12.5 mg/kg/injection, schedule: Q01DX009 (ip), vehicle: saline with Tween-80
  T/C: 98 % of control
dose: 12.5 mg/kg/injection, schedule: Q01DX009 (ip), vehicle: saline
  T/C: 96 % of control
dose: 12.5 mg/kg/injection, schedule: Q01DX Z (ip), vehicle: methylcellulose (MC)
  T/C: 94 % of control
dose: 20.0 mg/kg/injection, schedule: Q01DX001 (ip), vehicle: carboxymethylcellulose (CMC)
  T/C: 95 % of control
dose: 20.0 mg/kg/injection, schedule: Q01DX009 (ip), vehicle: carboxymethylcellulose (CMC)
  T/C: 96 % of control
[1]
  T/C: 102 % of control
dose: 25.0 mg/kg/injection, schedule: Q01DX009 (ip), vehicle: saline
  T/C: 98 % of control
dose: 25.0 mg/kg/injection, schedule: Q01DX Z (ip), vehicle: methylcellulose (MC)
  T/C: 101 % of control
dose: 40.0 mg/kg/injection, schedule: Q01DX001 (ip), vehicle: carboxymethylcellulose (CMC)
  T/C: 104 % of control
dose: 40.0 mg/kg/injection, schedule: Q01DX009 (ip), vehicle: carboxymethylcellulose (CMC)
  T/C: 108 % of control
[2]
  T/C: 95 % of control and 92 % of control
dose: 50.0 mg/kg/injection, schedule: Q01DX009 (ip), vehicle: saline
  T/C: 99 % of control
dose: 50.0 mg/kg/injection, schedule: Q01DX Z (ip), vehicle: carboxymethylcellulose (CMC)
  T/C: 155 % of control
dose: 50.0 mg/kg/injection, schedule: Q01DX Z (ip), vehicle: methylcellulose (MC)
  T/C: 121 % of control
dose: 80.0 mg/kg/injection, schedule: Q01DX001 (ip), vehicle: carboxymethylcellulose (CMC)
  T/C: 101 % of control
dose: 80.0 mg/kg/injection, schedule: Q01DX009 (ip), vehicle: carboxymethylcellulose (CMC)
  T/C: 96 % of control
[3]
  T/C: 107 % of control and 92 % of control
[4]
  T/C: 103 % of control
dose: 100.0 mg/kg/injection, schedule: Q01DX Z (ip), vehicle: methylcellulose (MC)
  T/C: 100 % of control
[5]
  T/C: 95 % of control
dose: 150.0 mg/kg/injection, schedule: Q01DX009 (ip), vehicle: saline
  T/C: 90 % of control
[6]
  T/C: 97 % of control
[7]
  T/C: 97 % of control
dose: 300.0 mg/kg/injection, schedule: Q01DX009 (ip), vehicle: saline
  T/C: 101 % of control
dose: 400.0 mg/kg/injection, schedule: Q04DX003 (ip), vehicle: saline with Tween-80
  T/C: 103 % of control
dose: 800.0 mg/kg/injection, schedule: Q04DX003 (ip), vehicle: saline with Tween-80
  T/C: 97 % of control

## Nc1cc(=S)c2[nH]cnc2[nH]1
[8]
  T/C: 92 % of control
[9]
  T/C: 88 % of control

## Cc1cc2oc(=O)c3c(c2c(O)c1CN1CCOCC1)CCCC3
[10]
  T/C: 96 % of control
[11]
  T/C: 98 % of control

## O=C(O)CSCc1cc(=O)[nH]c(=O)[nH]1
[12]
  T/C: 96 % of control
[13]
  T/C: 96 % of control
dose: 400.0 mg/kg/injection, schedule: Q04DX003 (ip), vehicle: saline
  T/C: 98 % of control

## CCOc1ccccc1/C=N\NC(=O)c1ccco1
[10]
  T/C: 106 % of control
[14]
  T/C: 95 % of control
[11]
  T/C: 104 % of control

## Nc1ccn(CC(=O)c2cccs2)c(=O)n1
[1]
  T/C: 93 % of control
[2]
  T/C: 98 % of control
[3]
  T/C: 100 % of control and 103 % of control
[5]
  T/C: 94 % of control
[7]
  T/C: 110 % of control

## CCOC(=O)C(CCC#N)(CCC#N)C(C)=O
[15]
  T/C: 105 % of control
[16]
  T/C: 94 % of control

## CCOC(=O)CCC(NC(=O)c1cc(Cl)c(N(C)S(=O)(=O)c2ccc(C)cc2)cc1Cl)C(=O)OCC (configuration not stated)
[8]
  T/C: 107 % of control
[3]
  T/C: 94 % of control
[17]
  T/C: 108 % of control
[6]
  T/C: 97 % of control
[9]
  T/C: 102 % of control
dose: 400.0 mg/kg/injection, schedule: Q01DX009 (ip), vehicle: saline with Tween-80
  T/C: 94 % of control

## Nc1nc(N)c(N=Nc2ccc(S(N)(=O)=O)cc2)cc1N=Nc1ccccc1
[10]
  T/C: 94 % of control
[14]
  T/C: 94 % of control
[11]
  T/C: 100 % of control

## COC(=O)C1C2CCCCC2(C)CC12SCCS2 (configuration not stated)
dose: 100.0 mg/kg/injection, schedule: Q04DX002 (ip), vehicle: Klucel (hydroxypropylcellulose) (HPC)
  T/C: 107 % of control
dose: 200.0 mg/kg/injection, schedule: Q04DX002 (ip), vehicle: Klucel (hydroxypropylcellulose) (HPC)
  T/C: 107 % of control
dose: 400.0 mg/kg/injection, schedule: Q04DX002 (ip), vehicle: Klucel (hydroxypropylcellulose) (HPC)
  T/C: 93 % of control

## CN(N=O)C(=O)NCCCl
dose: 0.36 mg/kg/injection, schedule: Q01DX Z (ip), vehicle: carboxymethylcellulose (CMC)
  T/C: 104 % of control
dose: 0.78 mg/kg/injection, schedule: Q01DX Z (ip), vehicle: carboxymethylcellulose (CMC)
  T/C: 95 % of control
dose: 1.56 mg/kg/injection, schedule: Q01DX Z (ip), vehicle: carboxymethylcellulose (CMC)
  T/C: 98 % of control
dose: 3.12 mg/kg/injection, schedule: Q01DX Z (ip), vehicle: carboxymethylcellulose (CMC)
  T/C: 102 % of control
dose: 6.25 mg/kg/injection, schedule: Q01DX Z (ip), vehicle: carboxymethylcellulose (CMC)
  T/C: 102 % of control
dose: 12.5 mg/kg/injection, schedule: Q01DX001 (ip), vehicle: Klucel (hydroxypropylcellulose) (HPC)
  T/C: 103 % of control
dose: 12.5 mg/kg/injection, schedule: Q01DX Z (ip), vehicle: carboxymethylcellulose (CMC)
  T/C: 101 % of control
dose: 25.0 mg/kg/injection, schedule: Q01DX001 (ip), vehicle: Klucel (hydroxypropylcellulose) (HPC)
  T/C: 103 % of control
dose: 25.0 mg/kg/injection, schedule: Q01DX Z (ip), vehicle: carboxymethylcellulose (CMC)
  T/C: 104 % of control
dose: 75.0 mg/kg/injection, schedule: Q01DX Z (ip), vehicle: carboxymethylcellulose (CMC)
  T/C: 119 % of control
[17]
  T/C: 118 % of control

## Cc1ccc(N=Nc2cc(C)c(N)cc2N)c(S(=O)(=O)O)c1
dose: 100.0 mg/kg/injection, schedule: Q04DX003 (ip), vehicle: other
  T/C: 96 % of control
dose: 200.0 mg/kg/injection, schedule: Q04DX003 (ip), vehicle: other
  T/C: 105 % of control
dose: 400.0 mg/kg/injection, schedule: Q04DX003 (ip), vehicle: other
  T/C: 103 % of control

## O=C1NCCN1c1ccccn1
[12]
  T/C: 100 % of control
[13]
  T/C: 97 % of control

## CC(=O)OCCCCBr
[4]
  T/C: 100 % of control
[15]
  T/C: 98 % of control
dose: 200.0 mg/kg/injection, schedule: Q01DX009 (ip), vehicle: saline
  T/C: 98 % of control
[16]
  T/C: 91 % of control
dose: 400.0 mg/kg/injection, schedule: Q01DX009 (ip), vehicle: saline
  T/C: 98 % of control
dose: 400.0 mg/kg/injection, schedule: Q04DX003 (ip), vehicle: Klucel (hydroxypropylcellulose) (HPC)
  T/C: 94 % of control

## [CH3][Sb]1([Br])[CH2]CC[CH2]1
[12]
  T/C: 93 % of control
[13]
  T/C: 101 % of control

## CC(C)(C)C12N=NCC1C(=O)C1(C(C)(C)C)OC1C2=O (configuration not stated)
dose: 100.0 mg/kg/injection, schedule: Q01DX001 (ip), vehicle: saline with Tween-80
  T/C: 102 % of control
dose: 200.0 mg/kg/injection, schedule: Q01DX001 (ip), vehicle: saline with Tween-80
  T/C: 97 % of control
dose: 400.0 mg/kg/injection, schedule: Q01DX001 (ip), vehicle: saline with Tween-80
  T/C: 94 % of control

## O=[N+]([O-])c1cnccc1/C=C\c1ccccc1
[8]
  T/C: 86 % of control
[17]
  T/C: 105 % of control
[9]
  T/C: 94 % of control
